Results: patent publication US8629166B2, “5-cycloalkyl- or 5-heterocyclyl-nicotinamides” (Hoffmann-La Roche Inc., priority 2011, dated 2014)

Columns and labels:
human CB2 receptor = target: T1, human CB2 receptor (Homo sapiens, UniProt P34972); assay: CB2 receptor affinity ([3H]-CP-55,940 displacement, HEK cell membranes); type: binding; details: displacement of [3H]-CP-55,940 at 10 μM
T1 construct: expressed in transfected cells; host or cells: human embryonic kidney (HEK) cells, Semliki Forest Virus system, membrane preparation
Experimental: (§1) CB1 and CB2 Receptor Affinity
(§2) The affinity of the compounds of the invention for cannabinoid CB2 receptors was determined using membrane preparations of human embryonic kidney (HEK) cells in which the human CB2 receptor is transiently transfected using a Semliki Forest Virus system in conjunction with [^3H]-CP-55,940 as radioligand. After incubation of freshly prepared cell membrane preparation with the [^3H]-ligand, with or without addition of compounds of the invention, separation of bound and free ligand was performed by filtration over glass fiber filters. Radioactivity on the filter was measured by scintillation counting.
(§3) The ability of the compounds to displace the radioligand [^3H]-CP-55,940 was measured at a concentration of 10 μM and values provided as [% inhibition @ 10 μM] both for the CB1 and CB2 receptor assay, The lower % inhibition is, the lower the likelihood of side effects based on CB1 or CB2 receptor inhibition is.

human CB1 receptor = target: T2, human CB1 receptor (Homo sapiens, UniProt P21554); assay: CB1 receptor affinity ([3H]-CP-55,940 displacement, HEK cell membranes); type: binding; details: displacement of [3H]-CP-55,940 at 10 μM
T2 construct: expressed in transfected cells; host or cells: human embryonic kidney (HEK) cells, Semliki Forest Virus system, membrane preparation
Experimental: as §1
as §2, with “cannabinoid” for “cannabinoid CB2”, “CB1” for “CB2”, “[3H]-CP-55,940” for “[^3H]-CP-55,940”
as §3

ABCA1 protein = assay: Detection of upregulation of ABCA1 protein in cells (ApoA-I binding, high content image analysis); type: cell-based; details: THP-1 macrophage cells; for % increase of ABCA1 at 3 μM: compound at 3 μM, 24 hrs
Experimental: Detection of Upregulation of ABCA1 Protein in Cells
The ability of compounds of the invention to increase the level of ABCA1 protein is determined in replicate cultures of THP-1 macrophage cells in 96-well microplates. Cells are plated at an initial density of 100,000 cells/well in 100 μl medium and differentiated to adherent macrophages with the addition of PMA (100 nM) for 68 hrs in 10% fetal bovine serum, 3 μl/L of b-mercaptoethanol, RPMI-1640 medium. Then, cells are incubated with RPMI-1640 medium containing 1% FCS, 25 μg/ml acetylated LDL, for 24 hours at 37° C. Following incubation with acetylated LDL, cells are washed twice with 50 μl PBS and incubated with 100 μl of RPMI-1640 medium containing the compound of interest solubilized in DMSO for an additional 24 hrs. The final DMSO concentration in presence of cells is maintained at 0.5%. ApoA-I binding assay using High Content Image Analysis is initiated by replacing with fresh medium, RPMI without Phenol Red, 0.2% BSA containing AlexaFluor®647 labeled ApoA-I for 2 h/37° C./5% CO2. Then, cells are fixed with 4% Formaldehyde in PBS (15 min, RT). Following Nuclei are stained with Hoechst solution (3 μM PBS) and Cytoplasm with Cell Mask Blue (2 μg/ml PBS), 15 min, RT. Finally the stained cells are fixed with a second round of formaldehyde treatment. Fixed stained cells are washed and kept in PBS at 4° C. and can be read immediately until one month after preparation.
The Alexa Fluor 647-labeled Apolipoprotein A-I (20 nM) was prepared as follows: Human recombinant Apolipoprotein A-I (ApoA-I) was exchanged to a buffer of 0.02 M NaHCO3 at pH 8.2 on an NAP desalting column (GE Healthcare) and brought to a concentration to 40 μM (1.13 mg/ml) by adjustment with the same buffer. The ApoA-I was fluorescently labeled by incubation with Alexa Fluor carboxylic acid succimidyl ester (Alexa Fluor 647, Invitrogen A-20006) at a 2:1 molar ratio (Alexa to ApoA-I) for 1 h under shaking at RT. The remaining unconjugated label was removed by buffer exchange to 0.02M NaHCO3 at pH 8.2.
Imaging and data collection were performed on an OPERA confocal microplate imaging reader using a 20× water immersion objective and UV360 or 405 laser to identify the cell nuclei and a 635 laser to identify the fluorescent ApoA-I. Eight fields of view are captured per well. Image capture and analysis was performed with the Acapella software. Background fluorescence detected in control wells without ApoA-I was subtracted.
Using XLfit3 program (ID Business Solutions Ltd. UK), the model 205 for Dose Response One Site is used to calculate the EC50 values. […] Particularly, the compounds of the present invention have EC50 values in a range of 0.1 μM to 3 μm.

T2 sequence (P21554 whole entry): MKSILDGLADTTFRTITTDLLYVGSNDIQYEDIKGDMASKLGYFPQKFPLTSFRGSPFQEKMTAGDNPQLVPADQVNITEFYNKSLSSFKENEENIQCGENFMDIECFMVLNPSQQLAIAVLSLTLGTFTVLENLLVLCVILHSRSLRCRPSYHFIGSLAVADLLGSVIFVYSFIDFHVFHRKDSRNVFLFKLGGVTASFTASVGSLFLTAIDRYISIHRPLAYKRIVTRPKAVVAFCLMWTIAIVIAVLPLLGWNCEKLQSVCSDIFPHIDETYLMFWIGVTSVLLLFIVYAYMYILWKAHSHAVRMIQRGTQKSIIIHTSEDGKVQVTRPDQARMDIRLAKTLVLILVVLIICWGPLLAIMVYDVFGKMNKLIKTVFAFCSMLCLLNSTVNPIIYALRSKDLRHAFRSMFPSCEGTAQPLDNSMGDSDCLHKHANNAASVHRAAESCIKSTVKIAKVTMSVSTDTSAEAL
T1 sequence (P34972 whole entry): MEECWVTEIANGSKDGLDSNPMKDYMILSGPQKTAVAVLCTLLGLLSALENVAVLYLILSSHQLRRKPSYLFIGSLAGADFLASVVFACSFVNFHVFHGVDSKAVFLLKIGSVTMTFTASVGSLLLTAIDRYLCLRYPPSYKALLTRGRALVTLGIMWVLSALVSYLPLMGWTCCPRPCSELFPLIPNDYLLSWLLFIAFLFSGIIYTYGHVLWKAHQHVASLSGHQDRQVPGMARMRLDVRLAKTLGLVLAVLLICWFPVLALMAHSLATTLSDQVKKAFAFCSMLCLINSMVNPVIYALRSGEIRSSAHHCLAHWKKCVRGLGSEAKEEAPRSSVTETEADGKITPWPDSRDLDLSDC

SMILES	CB2 receptor affinity [% inhibition @ 10 μM] (human CB2 receptor)	CB1 receptor affinity [% inhibition @ 10 μM] (human CB1 receptor)	% increase of ABCA1 at 3 μM (ABCA1 protein)	EC50 (ABCA1 protein; ABCA1 protein increasing efficacy)
O=C(NCc1nc(C(F)(F)F)no1)c1cnc(OCC(F)(F)F)c(C2CCCC2)c1 [Example 11, 5-cyclopentyl-6-(2,2,2-trifluoro-ethoxy)-N-(3-trifluoromethyl-[1,2,4]oxadiazol-5-ylmethyl)-nicotinamide]	−3 % inhibition	29 % inhibition	>45% @ 3 μM	
N#Cc1ccc(NC(=O)c2cnc(OCC(F)(F)F)c(C3CCCCC3)c2)cc1 [Example 24, N-(4-cyano-phenyl)-5-cyclohexyl-6-(2,2,2-trifluoro-ethoxy)-nicotinamide]	−17 % inhibition	10 % inhibition	>45% @ 3 μM	
O=C(Nc1ccnnc1)c1cnc(OCC(F)(F)F)c(C2CCCCC2)c1 [Example 20, 5-cyclohexyl-N-pyridazin-4-yl-6-(2,2,2-trifluoro-ethoxy)-nicotinamide]	6 % inhibition	36 % inhibition	>45% @ 3 μM	
O=C(Nc1cncnc1)c1cnc(OCC(F)(F)F)c(C2CCCCC2)c1 [Example 19, 5-cyclohexyl-N-pyrimidin-5-yl-6-(2,2,2-trifluoro-ethoxy)-nicotinamide]	−11 % inhibition	20 % inhibition	>45% @ 3 μM	
O=C(NCc1csc(C2CC2)n1)c1cnc(OCC(F)(F)F)c(C2CCCCC2)c1 [Example 16, 5-cyclohexyl-N-(2-cyclopropyl-thiazol-4-ylmethyl)-6-(2,2,2-trifluoro-ethoxy)-nicotinamide]	5 % inhibition	25 % inhibition	>45% @ 3 μM	

Further lines, with some results ahead:

CB2 receptor affinity [% inhibition @ 10 μM] (human CB2 receptor)	CB1 receptor affinity [% inhibition @ 10 μM] (human CB1 receptor)	SMILES	% increase of ABCA1 at 3 μM (ABCA1 protein)	EC50 (ABCA1 protein; ABCA1 protein increasing efficacy)
3 % inhibition	37 % inhibition	CCN(C(=O)c1cnc(OCC(F)(F)F)c(C2=CCCCC2)c1)C(C)C [Example 2, 5-cyclohex-1-enyl-N-ethyl-N-isopropyl-6-(2,2,2-trifluoro-ethoxy)-nicotinamide]	>45% @ 3 μM	
3 % inhibition	34 % inhibition	Cc1noc(CNC(=O)c2cnc(OCC(F)(F)F)c(C3CCCCC3)c2)n1 [Example 14, 5-cyclohexyl-N-(3-methyl-[1,2,4]oxadiazol-5-ylmethyl)-6-(2,2,2-trifluoro-ethoxy)-nicotinamide]	>45% @ 3 μM	
9 % inhibition	25 % inhibition	O=C(NCc1ccn(CC2CC2)n1)c1cnc(OCC(F)(F)F)c(C2CCCC2)c1 [Example 17, 5-cyclopentyl-N-(1-cyclopropylmethyl-1H-pyrazol-3-ylmethyl)-6-(2,2,2-trifluoro-ethoxy)-nicotinamide]	>45% @ 3 μM	
−9 % inhibition	9 % inhibition	O=C(Nc1ccccn1)c1cnc(OCC(F)(F)F)c(C2CCCC2)c1 [Example 10, 5-cyclopentyl-N-pyridin-2-yl-6-(2,2,2-trifluoro-ethoxy)-nicotinamide]		1.01 µM
